Test results published in patent US20200207744A1, “DIMER COMPOUNDS, AND USE IN BINDING TOXIC REPEATS OF RNA” (EXPANSION THERAPEUTICS, INC., priority 2018, published 2020).

tested on: r(CUG)12-MBNL1 complex; experiment: Small molecule inhibition of the r(CUG)12-MBNL1 complex measured by TR-FRET; format: binding; settings: biotinylated r(CUG)12 80 nM, MBNL1-His6 60 nM
Protocol: Example 28: Small Molecule Inhibition of the r(CUG)12-MBNL1 Complex Measured by Time Resolved Fluorescence Resonance Energy Transfer (TR-FRET)
The in vitro activity of small molecules were assessed by measuring the inhibition of the r(CUG)12-MBNL1 complex using a TR-FRET assay previously reported by Chen et al Analytical and Bioanalytical Chemistry 2012, 402, 1889. Biotinylated r(CUG)12 was folded at 60° C. in 1× Folding Buffer (20 mM HEPES, pH 7.5, 100 mM KCl, and 10 mM NaCl) and slowly cooled to room temperature. The buffer was then adjusted to 1× TR-FRET Buffer (1× Folding Buffer supplemented with 2 mM MgCl2, 2 mM CaCl2, 5 mM DTT, 0.1% BSA, 0.05% Tween-20) and MBNL1-His6 was added. The final concentrations of RNA and MBNL1-His6 were 80 nM and 60 nM, respectively. Then dilutions of the small molecule were made in 1× TR-FRET buffer. The samples were equilibrated at room temperature for 15 min, after which 1 μL of antibody solution (1:1 mixture of 8.8 ng/μL Anti-His6-Tb and 800 nM streptavidin XL-665) was added. Samples were incubated at room temperature for 1 h, and then TR-FRET was measured using a Molecular Devices SpectraMax M5 plate reader using an excitation wavelength of 345 nm and a 420 nm cutoff. Controls for maximum TR-FRET (100% complex formation) contained 8 μL of 1× TR-FRET Buffer with RNA and protein and 1 μL water. Controls for minimum TR-FRET (no complex formation) contained 8 μL of 1× Assay Buffer, 1 μL water, and no RNA or protein.
To calculate the percent inhibition of complex formation, the ratio of fluorescence intensity at 545 nm and 665 nm in the presence of compound was compared to the ratio in the absence of small molecule (100% r(CUG)12-MBNL1 complex formation) and in the absence of RNA and protein (no complex formation). The resulting curves were fit to the following equation to determine IC50 values: […]
where y is ratio of fluorescence intensities at 545 nm and 665 nm (F545/F665), x is the concentration of small molecule, B is F545/F665 value at max FRET effect (solution has RNA and protein but no small molecule added); A is F545/F665 value at min FRET effect (solution has antibodies but no RNA, protein, or small molecule); and the IC50 is the concentration of small molecule where half of the protein is displaced by small molecule.

Compound	IC50
3,3′-((2,2′-(((oxybis(ethane-2,1-diyl))bis(oxy))bis(2,1-phenylene))bis(1H-benzo[d]imidazole-6,2-diyl))bis(oxy))bis(N,N-dimethylpropan-1-amine) [Ex 13]	188 µM
CN(C)CCCOc1ccc2nc(-c3ccccc3OCCOCCOCCOc3ccccc3-c3nc4ccc(OCCCN(C)C)cc4[nH]3)[nH]c2c1 [Ex 14a, 3,3′-((2,2′-((((ethane-1,2-diylbis(oxy))bis(ethane-2,1-diyl))bis(oxy))bis(2,1-phenylene))bis(1H-benzo[d]imidazole-6,2-diyl))bis(oxy))bis(N,N-dimethylpropan-1-amine)]	166 µM
CN(C)CCCOc1ccc2nc(-c3ccc(-c4nc5ccc(OCCCN(C)C)cc5[nH]4)c(OCCCCCCCCCCCCOc4cc(-c5nc6ccc(OCCCN(C)C)cc6[nH]5)ccc4-c4nc5ccc(OCCCN(C)C)cc5[nH]4)c3)[nH]c2c1 [Ex 20, 3,3′,3″,3′″-((((dodecane-1,12-diylbis(oxy))bis(benzene-2,1,4-triyl))tetrakis(1H-benzo[d]imidazole-2,5-diyl))tetrakis(oxy))tetrakis(N,N-dimethylpropan-1-amine)]	2.8 µM
3,3′-((2,2′-(2-(3-((3-(2,5-bis(6-(3-(dimethylamino)propoxy)-1H-benzo[d]imidazol-2-yl)phenoxy)propyl)(methyl)amino)propoxy)-1,4-phenylene)bis(1H-benzo[d]imidazole-6,2-diyl))bis(oxy))bis(N,N-dimethylpropan-1-amine) [Ex 18]	0.72 µM
3,3′-((2,2′-((ethane-1,2-diylbis(oxy))bis(2,1-phenylene))bis(1H-benzo[d]imidazole-6,2-diyl))bis(oxy))bis(N,N-dimethylpropan-1-amine) [Ex 12]	> 200 µM
CN(C)CCCOc1ccc2nc(-c3ccccc3OCCOCCOCCOc3ccccc3-c3nc4ccc(O)cc4[nH]3)[nH]c2c1 [Ex 14b, 2-(2-(2-(2-(2-(2-(6-(3-(dimethylamino)propoxy)-1H-benzo[d]imidazole-2-yl)phenoxy)ethoxy)ethoxy)ethoxy)phenyl)-1H-benzo[d]imidazol-6-ol]	> 200 µM
